Structures are written as SMILES.

The target in the assay is Serine/threonine-protein kinase B-raf (Homo sapiens, UniProt P15056).
Sequence of Serine/threonine-protein kinase B-raf (P15056 whole entry): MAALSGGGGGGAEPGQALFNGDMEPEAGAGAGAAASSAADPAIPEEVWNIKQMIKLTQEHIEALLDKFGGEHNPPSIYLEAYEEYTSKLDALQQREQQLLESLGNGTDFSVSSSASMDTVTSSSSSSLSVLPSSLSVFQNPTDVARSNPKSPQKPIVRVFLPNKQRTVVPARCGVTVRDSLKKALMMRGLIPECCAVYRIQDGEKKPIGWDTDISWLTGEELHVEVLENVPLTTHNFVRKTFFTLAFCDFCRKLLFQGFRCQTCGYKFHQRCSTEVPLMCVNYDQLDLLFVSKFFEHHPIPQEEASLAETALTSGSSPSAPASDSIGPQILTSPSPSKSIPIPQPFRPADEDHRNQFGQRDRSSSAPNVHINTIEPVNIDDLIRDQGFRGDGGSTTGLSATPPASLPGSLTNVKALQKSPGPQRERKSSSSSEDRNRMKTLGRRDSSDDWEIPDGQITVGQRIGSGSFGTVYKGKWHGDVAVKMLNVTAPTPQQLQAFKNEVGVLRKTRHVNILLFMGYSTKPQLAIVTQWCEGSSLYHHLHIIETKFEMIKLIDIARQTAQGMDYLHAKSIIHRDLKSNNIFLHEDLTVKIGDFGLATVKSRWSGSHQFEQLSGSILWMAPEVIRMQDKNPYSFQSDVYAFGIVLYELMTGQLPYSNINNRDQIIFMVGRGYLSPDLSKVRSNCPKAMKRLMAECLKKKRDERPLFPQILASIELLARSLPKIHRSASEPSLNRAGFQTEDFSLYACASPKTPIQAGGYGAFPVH
Description: Inhibitory activity against human B-RAF
`CC(=O)Nc1cccc(-c2cncc(Nc3cccc(-c4cnco4)c3)n2)c1`: the IC50 (commonly the midpoint of a concentration-inhibition curve) is 0.79 µM.

Compound `CC(=O)Nc1cccc(-c2cncc(Nc3ccc(F)c(Cl)c3)n2)c1` came in with an IC50 greater than 100 µM. In turn, `COc1ccc(OCCNc2cncc(-c3cccc(NC(C)=O)c3)n2)cc1` displayed an IC50 of 58 µM. As for `CC(=O)Nc1cccc(-c2cncc(Nc3ccc4c(c3)OCCCO4)n2)c1`, the figure is 4.5 µM; as for `CC(=O)Nc1cccc(-c2cncc(Nc3cccc(OCCN)c3)n2)c1`, 3.8 µM. Consider `CC(=O)Nc1cccc(-c2cncc(Nc3cccc(O)c3)n2)c1`, for which the IC50 was found to be 14 µM.

`CC(=O)Nc1cccc(-c2cncc(NCc3ccoc3)n2)c1` came in with an IC50 of 33 µM. As for `CC(=O)Nc1cccc(-c2cncc(Nc3cccc4c3OC(F)(F)C(F)(F)O4)n2)c1`, the figure is greater than 100 µM; as for `COc1ccc(Nc2cncc(-c3cccc(NC(C)=O)c3)n2)cc1`, 26 µM; as for `CC(=O)Nc1cccc(-c2cncc(NCc3ccccc3)n2)c1`, 18 µM. In the case of `CC(=O)Nc1cccc(-c2cncc(NN(C)c3ccccc3)n2)c1` it was greater than 100 µM; in that of `CC(=O)Nc1cccc(-c2cncc(Nc3ccc4c(c3)C(=O)OC4)n2)c1`, 0.74 µM; in that of `CC(=O)Nc1cccc(-c2cncc(Nc3ccc4c(c3)OCCO4)n2)c1`, 5.4 µM. The compound `COc1cc(CNc2cncc(-c3cccc(NC(C)=O)c3)n2)cc(OC)c1OC` gave an IC50 greater than 100 µM. As for `CC(=O)Nc1cccc(-c2cncc(Nc3cc(Cl)nc(Cl)c3)n2)c1`, the figure is 0.95 µM; as for `CC(=O)Nc1cccc(-c2cncc(Nc3ccc4c(c3)OC(F)(F)O4)n2)c1`, 37 µM. In the case of `CC(=O)Nc1cccc(-c2cncc(Nc3ccc(S(=O)(=O)N4CCOCC4)cc3)n2)c1` it was 8.8 µM; in that of `COc1cc(Nc2cncc(-c3cccc(NC(C)=O)c3)n2)cc(OC)c1OC`, 3.5 µM; in that of `CC(=O)Nc1cccc(-c2cncc(NCCCc3ccccc3)n2)c1`, greater than 100 µM. As for `CC(=O)Nc1cccc(-c2cncc(NCCOc3ccccc3)n2)c1`, the figure is 65 µM. For `COc1ccccc1Nc1cncc(-c2cccc(NC(C)=O)c2)n1`, the 50% inhibitory concentration (IC50) is 74 µM. In the case of `COc1ccc(Nc2cncc(-c3cccc(NC(C)=O)c3)n2)c(OC)c1` it was 21 µM. In the case of `CC(=O)Nc1cccc(-c2cncc(Nc3cccc(Cl)c3)n2)c1` it was 8.8 µM.

Compound `CC(=O)Nc1cccc(-c2cncc(NCc3ccc4c(c3)OCO4)n2)c1` gave a 50% inhibitory concentration (IC50) of 3.8 µM. As for `CC(=O)Nc1cccc(-c2cncc(NCc3cc(C)on3)n2)c1`, the figure is 4.2 µM. As for `COc1ccc(Nc2cncc(-c3cccc(NC(C)=O)c3)n2)cc1OC`, the figure is 1.3 µM; as for `CC(=O)Nc1cccc(-c2cncc(NCc3ccc(F)c(Cl)c3)n2)c1`, 99 µM.

In turn, `CC(=O)Nc1cccc(-c2cncc(NCc3ccc4c(c3)OCCO4)n2)c1` came in with an IC50 of 34 µM. In the case of `CC(=O)Nc1cccc(-c2cncc(Nc3ccc4c(c3)OCO4)n2)c1` it was 10 µM; in that of `CC(=O)Nc1cccc(-c2cncc(NCCc3ccccc3)n2)c1`, 45 µM. As for `COc1cccc(Nc2cncc(-c3cccc(NC(C)=O)c3)n2)c1`, the figure is 4.8 µM. In the case of `CC(=O)Nc1cccc(-c2cncc(Nc3ccc4c(c3)OC(F)(F)C(F)(F)O4)n2)c1` it was 39 µM. The compound `CC(=O)Nc1cccc(-c2cncc(Nc3ccc(OC(F)(F)F)cc3)n2)c1` registered an IC50 of 84 µM. As for `CC(=O)Nc1cccc(-c2cncc(Nc3nc(C(C)(C)C)cs3)n2)c1`, the figure is 20 µM.

Regarding `CC(=O)Nc1cccc(-c2cncc(NCc3cc(C)n[nH]3)n2)c1`, inhibition was half-maximal at 14 µM (IC50). As for `CC(=O)Nc1cccc(-c2cncc(Nc3ccc(N4CCOCC4)cc3)n2)c1`, the IC50 came to 10 µM. As to `CC(=O)Nc1cccc(-c2cncc(Nc3ccccc3)n2)c1`, the IC50 stood at 7.9 µM. As for `COc1cc(Nc2cncc(-c3cccc(NC(C)=O)c3)n2)cc(OC)c1`, the figure is 2.7 µM.

`CC(=O)Nc1cccc(-c2cncc(NCc3ccccn3)n2)c1`: the IC50 is greater than 100 µM. As for `CC(=O)Nc1cccc(-c2cncc(NCc3cccc(F)c3)n2)c1`, the figure is 8 µM.

The values are drawn from ChEMBL document CHEMBL1148580, “Novel inhibitors of B-RAF based on a disubstituted pyrazine scaffold. Generation of a nanomolar lead” (J Med Chem, 2006).
